Results taken from article PMC6715247 (PLoS Neglected Tropical Diseases, 2019).

What was measured:
[1] = target: rEhAPSK (Entamoeba histolytica, UniProt C4LUW9); experiment: 96-well plate-based in vitro APSK activity assay (coupling assay, NADH decrease); format: biochemical; settings: 10 μM compound, 1% DMSO
Procedure: (§1) A coupling assay to measure APSK activity was performed as described except a 96-well plate was used. Briefly, each well contained 100 μL reaction mixture, which consisted of 90 μL coupling solution and 10 μL of either compound solution (see below) or 10% DMSO. […] The coupling solution was 100 mM Tris/HCl (pH 8.0), 1 mM MgCl2, 1 mM KCl, 5 mM Mg2ATP, 1 mM NADH, 1 mM PEP, 1 U NP1, 3.5 U PK, 5.0 U LDH, and APSK (≤3 μL). […] As controls, in place of purified APSK solution (rEhAPSK or rHsAPSK), 3 μL of a blank [50 mM Tris/HCl buffer (pH 8.0)], a solvent (elution buffer), a mock (rEhSF2), or denatured APSK suspensions obtained by heat-treatment, were added to the coupling solution. The activity of each sample was calculated after removing the baseline value of the blank control.
(§2) For the inhibition assay, 2 μL of each stock solution, which were distributed in a 96-well plate, were transferred to a new plate to make a replicate. After adding 18 μL deionized water to each well and mixing, 10 μL of each diluted solution (100 μM compound solution) was again transferred into a new 96-well plate to make a replicate. Then 90 μL of the coupling solution prepared above was dispensed into each well containing the previously added 10 μL of 100 μM compound solution. As a solvent control, 10% DMSO solution (vol/vol-deionized water) was used in place of compound solution. The final concentrations of each compound and DMSO in a well were 10 μM and 1% (vol/vol), respectively. The assays were performed independently three times, and data are shown as the mean with SD.
One millimolar stock solutions used were either thawed in a replicate (96-well plate) prepared in [18] […] Subsequently, 3.4 μL of the 1 mM and each diluted stock solution were dispensed into wells of a 96-well culture plate, containing 30.6 μL deionized water and mixed well by pipetting. Ten microliters of all resulting solutions were then dispensed into wells of a 96-well plate to make triplicates and then used as described for the above inhibition assay. 10% DMSO solution was used as an inhibitor-free control. Note that the final DMSO concentration in any well was 1% (vol/vol).
(§3) In all assays, prepared mixtures in a plate were mixed on a vibrating table equipped with either an EnVision or ARVO plate reader (PerkinElmer) before starting the reaction.

[2] = target: T1, rHsAPSK (recombinant APSK domain of HsPAPSS1) (Homo sapiens, UniProt O43252); experiment: as above; format: biochemical; settings: 10 μM compound, 1% DMSO
T1 construct: APSK domains of HsPAPSS1 (Ala^25—Pro^227) and -2 (Ser^15—Pro^217); His tag (pCold-I vector); made in house; host or cells: E. coli BL21(DE3)
T1 sequence (O43252 25-227): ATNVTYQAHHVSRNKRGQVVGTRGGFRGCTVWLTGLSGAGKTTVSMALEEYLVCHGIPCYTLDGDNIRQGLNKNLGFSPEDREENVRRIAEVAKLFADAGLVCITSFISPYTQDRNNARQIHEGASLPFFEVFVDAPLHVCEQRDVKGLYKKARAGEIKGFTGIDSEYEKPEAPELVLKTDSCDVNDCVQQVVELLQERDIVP
Procedure: as §1, §2, §3

[3] = system: E. invadens cyst formation; experiment: E. invadens cyst formation (encystation) assay (flow cytometry); format: cell-based, Entamoeba invadens; settings: compound added at 48 h post-induction (48–72 h)
Procedure: E. histolytica trophozoite proliferation and E. invadens cyst formation assays were performed essentially as described in [18] except that in addition to 0–72 and 48–72 h cyst formation assays, 0–96 and 0–120 h, and 48–96 and 48–120 h assays were also performed.

[4] = system: Human foreskin fibroblast (HFF) cells; experiment: WST-1-based cytotoxicity assay
Procedure: Human foreskin fibroblast (HFF) cells (purchased from ATCC) were routinely maintained in DMEM supplemented with 10% fetal bovine serum, 100 units/ml penicillin, […] and 1% GlutaMAX™-I (Thermo Fisher Scientific, Waltham, MA). A WST-1-based cytotoxicity assay was performed as previously described. In detail, HFF cells were plated at 1.0×10^4 cells/100 μL medium in each well of a 96-well culture plate, and incubated overnight at 37°C in a 5% CO2 atmosphere to allow cells to adhere to the wells. […] Numbers of viable cells were then assessed using the Premix WST-1 Cell Proliferation Assay System (Takara). […] DMSO was added at 1% as a negative control whereas ionomycin was added at 30 μM as a positive control. As a blank, the above culture medium was used in place of the solutions added.

[5] = system: sulfolipids synthesized in E. histolytica trophozoites; experiment: Metabolic labeling by [35S]-labeled sulfate, sulfolipid synthesis; format: cell-based, Entamoeba histolytica; settings: 6 h treatment; A-D-11, A-H-11 6.25-100 μM, E-H-05 0.5-8 μM
Procedure: Metabolic labeling of E. histolytica trophozoites by [^35S]-labeled sulfate was performed essentially as described previously with slight modification. […] Each 10 mM stock solution (in DMSO) of the three commercially sourced compounds was serially diluted by 2-fold decrements with DMSO. The resulting diluted solutions were then added to 0.75 ml cell suspension in BI-S-33 medium at 1/100 (vol/vol). […] Note that DMSO was used as a solvent control at 1%, which was the DMSO concentration in all samples analyzed. [^35S]-labeled sulfate (45 μCi) was added 4 h after the start of treatments and labeled cells were harvested at 6 h. […] Each spot on the TLC plates was quantified using a Fuji imaging analyzer and Multi Gauge 2.2 software (FLA-7000; Fujifilm, Japan). The total cell protein was estimated using a Pierce BCA protein assay kit (Thermo Scientific, Rockford, IL, USA).

[6] = system: E. histolytica trophozoite; parameters: method as in PMID 30087858; settings: ref [18], cited from earlier work
[7] = system: E. invadens cyst formation; parameters: method as in PMID 30087858; settings: ref [18], cited from earlier work
[8] = system: recombinant EhTrxR; parameters: method as in PMID 22610278, PMID 26876147; settings: ref [19], [59]; cited from earlier work

Sequence of rEhAPSK (C4LUW9 entry or part of it): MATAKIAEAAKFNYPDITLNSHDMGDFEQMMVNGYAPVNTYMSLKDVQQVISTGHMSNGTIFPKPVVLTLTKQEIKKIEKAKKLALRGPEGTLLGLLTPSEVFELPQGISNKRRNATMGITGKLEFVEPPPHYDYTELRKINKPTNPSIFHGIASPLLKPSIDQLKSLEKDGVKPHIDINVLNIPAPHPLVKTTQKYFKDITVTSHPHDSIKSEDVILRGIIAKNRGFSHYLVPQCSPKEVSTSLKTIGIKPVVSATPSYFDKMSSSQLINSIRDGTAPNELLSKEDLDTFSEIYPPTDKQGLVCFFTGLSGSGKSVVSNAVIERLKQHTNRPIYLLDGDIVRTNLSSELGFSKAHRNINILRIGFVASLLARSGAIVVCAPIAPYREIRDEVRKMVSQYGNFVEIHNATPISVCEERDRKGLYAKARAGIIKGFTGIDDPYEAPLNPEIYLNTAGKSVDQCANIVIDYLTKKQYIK

auranofin [E-H-05, reference compound]
Inhibition of rEhAPSK activity [1]: reproducibly inhibited rEhAPSK activity
Inhibition of rHsAPSK activity [2]: none showed any inhibitory activity against HsAPSK
Number of cysts formed at 72 h [3]: did not affected the number of cyst formed at 72 h
Number of viable HFF cells relative to 1% DMSO control (set as 100%) ([4]; 10 μM, 48 h): < 10%
IC50 ([4]; read-out: Cytotoxicity (HFF) IC50, 48 h exposure, WST-1): 4000 ± 1400 nM
Amount of sulfolipids synthesized [5]: dose-dependently reduced the amount of sulfolipids synthesized
Effect on trophozoite proliferation ([6]; 10 μM): negative effects
IC50 ([6]; average ± SD, read-out: Trophozoite proliferation IC50): 650 ± 180 nM
Effect on cyst formation ([7]; 10 μM): negative effects
IC50 ([7]; average ± SD): 1730 ± 700 nM
IC50 [8]: 400 nM
